Assay: molar heat capacity at constant pressure
Settings: 101.33 kPa, Crystal 1

O=P([O-])([O-])[O-].[Cs+].[Mn+2] [cesium manganese(II) phosphate]
molar heat capacity at constant pressure [J/K/mol]
Settings	Small sample (50 mg) DSC	Vacuum adiabatic calorimetry
240.73 K	–	124.88
243.23 K	–	125.55
245.29 K	–	126.13
247.36 K	–	126.8
250 K	–	126.96
250.13 K	–	127.46
252.55 K	–	128.04
255.37 K	–	128.79
258.11 K	–	129.46
260 K	–	129.62
260.99 K	–	130.29
263.88 K	–	131.12
266.76 K	–	131.87
269.64 K	–	132.62
270 K	–	132.37
272.52 K	–	133.45
275.39 K	–	134.28
278.26 K	–	135.19
280 K	–	135.11
281.34 K	–	136.02
283.99 K	–	136.77
286.86 K	–	137.69
289.06 K	–	138.1
290 K	–	138.02
291.64 K	–	139.02
295.04 K	–	140.18
297.8 K	–	141.01
298.15 K	–	140.43
300 K	–	141.01
300.2 K	–	141.76
302.7 K	–	142.51
305.33 K	–	143.34
308.4 K	–	144.17
310 K	–	144.17
310.94 K	–	144.92
314 K	–	145.92
317.6 K	–	147
320 K	–	147.58
320.46 K	–	147.91
323.3 K	–	148.91
326.66 K	–	150.08
329.3 K	–	150.91
330 K	–	151.16
330.7 K	151.32	–
331.64 K	–	151.57
332.7 K	152.15	–
333.9 K	152.15	–
335.3 K	–	152.49
337 K	152.99	–
338.7 K	–	153.4
340 K	153.82	154.9
341.6 K	153.82	–
343.13 K	–	154.65
345 K	155.48	–
347.5 K	155.48	–
350 K	156.31	–
352.5 K	157.14	–
355 K	157.14	–
357.7 K	157.97	–
360 K	158.81	–
360.2 K	157.97	–
362.5 K	158.81	–
364.9 K	158.81	–
367.5 K	159.64	–
370 K	160.47	–
372.5 K	160.47	–
374.8 K	161.3	–
377.3 K	161.3	–
380 K	162.13	–
382.2 K	162.13	–
385 K	162.96	–
387.5 K	162.96	–
390 K	163.8	–
392.5 K	163.8	–
395 K	164.63	–
397.5 K	164.63	–
400 K	164.63	–
400.3 K	165.46	–
402.8 K	165.46	–
405.3 K	166.29	–
407.5 K	166.29	–
409.5 K	166.29	–
410 K	166.29	–
412.6 K	166.29	–
415 K	167.12	–
417.5 K	167.12	–
420 K	167.12	–
422.5 K	167.12	–
425 K	167.95	–
